# Test results taken from ChEMBL document CHEMBL1212812, “Multi-target spectral moment QSAR versus ANN for antiparasitic drugs against different parasite species” (Bioorg Med Chem, 2010).
# Tested on: Plasmodium falciparum
# Test: Antimicrobial activity against Plasmodium falciparum
# Type: functional, organism-based
row,IC50,SMILES
1,42 µM,O=C1Nc2ccccc2/C1=C\c1ccc(O)cc1
2,214 µM,CC1C2c3ccccc3C(c3ccccc32)C1C(=O)Nc1ccccn1 (stereo not given)
3,52 µM,O=C(NCc1ccccc1)C1=CC2c3ccccc3C1c1ccccc12
4,17 µM,CC1C2c3ccccc3C(c3ccccc32)C1C[N+](C)(C)C (stereo not given)
5,35 µM,CN(C)CC1C2c3ccccc3C(c3ccccc32)C1CO (stereo not given)
6,500 µM,CC1C2c3ccccc3C(c3ccccc32)C1C(=O)Nc1ccncc1 (stereo not given)
7,49 µM,CC1C2c3ccccc3C(c3ccccc32)C1C(=O)/N=C/N(C)C (stereo not given)
8,5 µM,Cn1c2nc3ccccc3c-2cc2cc(F)ccc21
9,37 µM,CC(=O)/C=C1\C(=O)Nc2ccccc21
10,44 µM,CC(C)(C)C(=O)/C=C1\C(=O)Nc2ccccc21
11,24 µM,N#C/C(C(N)=O)=C1/C(=O)Nc2ccccc21
12,51 µM,CC1C2c3ccccc3C(c3ccccc32)C1C(=O)/N=N/N(C)C (stereo not given)
13,30 µM,CC1C2c3ccccc3C(c3ccccc32)C1CN (stereo not given)
14,33 µM,CN(C)/N=N\C(=O)C1C2c3ccccc3C(c3ccccc32)C1C(=O)/N=N/N(C)C (stereo not given)
15,34 µM,CN(C)/C=N\C(=O)C1C2c3ccccc3C(c3ccccc32)C1C(=O)/N=C\N(C)C (stereo not given)
16,35 µM,NC(=O)C1=CC2c3ccccc3C1c1ccccc12
17,32 µM,CN(C)C(=O)C1=CC2c3ccccc3C1c1ccccc12
18,29 µM,CC(=O)C1C(=O)Nc2ccccc21 (stereo not given)
19,29 µM,Cc1c(O)noc1-c1ccccc1
20,68 µM,CCCCCCCCCCCOCCOCCOCCOCCOCCO
21,782 µM,CCCCCCCCCC[N+](C)(C)CCCS(=O)(=O)[O-]

row,IC50,SMILES
1,65 µM,CCCCCCCCCCCCCCCC[N+](C)(C)CCCS(=O)(=O)[O-]
2,233 µM,CCCCCCCCCCO[C@@H]1O[C@H](CO)[C@@H](O)[C@H](O)[C@H]1O
3,4 µM,O=C1Nc2ccccc2/C1=C/C(=O)c1ccc(Br)cc1
4,1 µM,O=C1Nc2ccccc2/C1=C/C(=O)c1ccc(F)cc1
5,17 µM,O=C1NC(=S)S/C1=C1\C(=O)Nc2ccccc21
6,19 µM,O=C1NC(=O)/C(=C2/C(=O)Nc3ccccc32)S1
7,37 µM,O=C1Nc2ccccc2/C1=C\c1ccc(Cl)cc1
8,57 µM,C/N=C/c1c(O)[nH]c2ccccc12
9,20 µM,C=CCC1Cc2c(c3ccccc3c3nc4ccccc4nc23)OC1(C)C (stereo not given)
10,2 µM,CC1(C)Oc2c(c3nc4ccccc4nc3c3ccccc23)CC1I (stereo not given)
11,4 µM,NC1=NC(c2cccc(Oc3ccc(Cl)cc3)c2)N(c2cccc(Cl)c2)C(N)=N1 (stereo not given)
12,9 µM,NC1=NC(c2cccc(OCCCOc3cc(Cl)c(Cl)cc3Cl)c2)N(c2cccc(Cl)c2)C(N)=N1 (stereo not given)
13,3 µM,CCCCCCC1(C)N=C(N)N=C(N)N1c1cccc(Cl)c1 (stereo not given)
14,7 µM,NC1=NC(c2ccc(Oc3ccccc3)cc2)N(c2ccc(Cl)cc2)C(N)=N1 (stereo not given)
15,4 µM,NC1=NC(c2cccc(Oc3ccccc3)c2)N(c2cccc(Cl)c2)C(N)=N1 (stereo not given)
16,3 µM,NC1=NC(c2ccc(Oc3ccccc3)cc2)N(c2cccc(Cl)c2)C(N)=N1 (stereo not given)
17,6 µM,NC1=NC(c2cccc(Oc3cc(Cl)cc(Cl)c3)c2)N(c2cccc(Cl)c2)C(N)=N1 (stereo not given)
18,4 µM,O=C1Nc2ccccc2/C1=C/C(=O)c1ccccc1
19,92 µM,CCN(CC)CCCC(C)Nc1ccncc1 (stereo not given)
20,6 µM,Nc1nc(N)c(-c2cccc(Cl)c2)c(CCCc2ccccc2)n1
21,6 µM,CC1(C)Oc2c(c3nc4ccccc4nc3c3ccccc23)CC1S(=O)(=O)O (stereo not given)

row,IC50,SMILES
1,9 µM,CCc1nc(N)nc(N)c1-c1cccc(Cl)c1
2,200 µM,CCCCCCCCCCC(O)(P(=O)(O)O)P(=O)(O)O
3,6 µM,CCCCCC(O)(P(=O)(O)O)P(=O)(O)O
4,200 µM,CC(C)(C)c1cc(NC(P(=O)(O)O)P(=O)(O)O)cc(C(C)(C)C)c1
5,200 µM,O=P(O)(O)C(Nc1cccnc1)P(=O)(O)O
6,32 µM,CC1C2c3ccccc3C(c3ccccc32)C1C(N)=O (stereo not given)
7,3 µM,CN(C)CC1=C(CN(C)C)C2c3ccccc3C1c1ccccc12
8,21 µM,CC1C2c3ccccc3C(c3ccccc32)C1CN(C)C (stereo not given)
9,1 µM,NC1=NC(c2ccccc2)N(c2cccc(Cl)c2)C(N)=N1 (stereo not given)
10,41 µM,CCN(CC)Cc1cc(Nc2ccnc3cc(Cl)ccc23)cc(-c2ccc(Cl)cc2)c1F
11,4 µM,O=C1Nc2ccccc2/C1=C\c1ccc(C(F)(F)F)cc1
12,21 µM,O=C1Nc2ccccc2/C1=C\C1CCCCN1 (stereo not given)
13,42 µM,CCOC(=O)/C(C#N)=C1/C(=O)Nc2ccccc21
14,17 µM,O=C1Nc2ccccc2/C1=C\c1c(Cl)cccc1Cl
15,3 µM,CCCOc1ccc(C2N=C(N)N=C(N)N2c2cccc(Cl)c2)cc1 (stereo not given)
16,3 µM,NC1=NC(c2cccc(Oc3cccc(C(F)(F)F)c3)c2)N(c2cccc(Cl)c2)C(N)=N1 (stereo not given)
17,1 µM,CN(C)c1ccc(Nc2c3ccccc3nc3ccccc23)cc1
18,4 µM,NC1=NC(c2cccc(Oc3ccc(Cl)cc3)c2)N(c2ccc(Cl)cc2)C(N)=N1 (stereo not given)
19,8 µM,NC1=NC(c2cccc(OCc3ccccc3)c2)N(c2cccc(Cl)c2)C(N)=N1 (stereo not given)
20,1 µM,COc1ccc(Nc2c3ccc(N)cc3nc3cc(N)ccc23)cc1
21,1 µM,CC[N+](CC)(CC)CCCCCCCC[N+](CC)(CC)CC

row,IC50,SMILES
1,3 µM,O=C1Nc2ccc(Br)cc2/C1=C/C(=O)c1ccccc1
2,1 µM,CN(C)Cc1ccc(Nc2c3ccc(Cl)cc3nc3cc(Cl)ccc23)cc1
3,7 µM,NS(=O)(=O)c1ccc(Nc2c3ccc(Cl)cc3nc3cc(Cl)ccc23)cc1
4,3 µM,Cc1ccc(C(=O)/C=C2\C(=O)Nc3ccc(Br)cc32)cc1
5,19 µM,Oc1ccc(Nc2ccnc3cc(Cl)ccc23)cc1
6,1 µM,CS(=O)(=O)Nc1ccc(Nc2c3ccc(N)cc3nc3cc(N)ccc23)cc1
7,1 µM,CCCCCCCCCCCC(O)(P(=O)(O)O)P(=O)(O)O
8,79 µM,CC1C2c3ccccc3C(c3ccccc32)C1C(=O)Nc1cccnc1 (stereo not given)
9,200 µM,O=P(O)(O)C(Nc1ccc(I)cn1)P(=O)(O)O
10,200 µM,O=P(O)(O)C(NCCCc1ccccc1)P(=O)(O)O
11,200 µM,CCCCOc1ccc(NC(P(=O)(O)O)P(=O)(O)O)cc1
12,1 µM,CNc1ccc(Nc2c3ccccc3nc3cc(Cl)ccc23)cc1
13,134 µM,CCN(CC)Cc1cc(Nc2ccncc2)ccc1O
14,1 µM,CN(C)c1ccc(Nc2c3ccccc3nc3cc(Cl)ccc23)cc1
15,200 µM,Cc1cc(C)nc(NC(P(=O)(O)O)P(=O)(O)O)c1
16,1 µM,CCCCCCCCCC(O)(P(=O)(O)O)P(=O)(O)O
17,200 µM,CCCCCCC(CCCC)C(O)(P(=O)(O)O)P(=O)(O)O (stereo not given)
18,4 µM,CCCCCCC(O)(P(=O)(O)O)P(=O)(O)O
19,200 µM,Cc1cccc(NC(P(=O)(O)O)P(=O)(O)O)n1
20,200 µM,O=P(O)(O)C(Nc1ccc(Cl)nc1)P(=O)(O)O

row,SMILES,IC50
1,Cc1nc2cnncc2n1-c1ccc(Cl)cc1C(=O)c1ccccc1Cl,1 µM
2,CCOC(=O)C1C2c3ccccc3C(c3ccccc32)C1C(=O)N(C)C (stereo not given),33 µM
3,CN(C)C(=O)C1C2c3ccccc3C(c3ccccc32)C1C(=O)O (stereo not given),36 µM
4,O=C(O)C1C2c3ccccc3C(c3ccccc32)C1CBr (stereo not given),40 µM
5,CN(C)C1CC2c3ccccc3C1c1ccccc12 (stereo not given),9 µM
6,CCOC(=O)C1C2c3ccccc3C(c3ccccc32)C1N(C)C (stereo not given),30 µM
7,CN(C)C1C2c3ccccc3C(c3ccccc32)C1C(=O)O (stereo not given),50 µM
